# Measured values as given in patent US9453008B2, “Antithrombotic and antiatherosclerotic agent and method for producing same (variants)” (PROTON OOO, priority 2011, dated 2016).
# Marks after values point to notes of the source that are not given here.
# Tests used:
# [1] = target: T1, soluble guanylate cyclase of human platelets (Homo sapiens, UniProt Q02108+Q02153); test: Specific activity of soluble guanylate cyclase of human platelets; assay type: biochemical; design: Activation: unit: % of initial activity
# T1 construct: soluble guanylate cyclase of human platelets; from tissue; host or cells: human platelets
# T1 sequence (Q02153 1-619): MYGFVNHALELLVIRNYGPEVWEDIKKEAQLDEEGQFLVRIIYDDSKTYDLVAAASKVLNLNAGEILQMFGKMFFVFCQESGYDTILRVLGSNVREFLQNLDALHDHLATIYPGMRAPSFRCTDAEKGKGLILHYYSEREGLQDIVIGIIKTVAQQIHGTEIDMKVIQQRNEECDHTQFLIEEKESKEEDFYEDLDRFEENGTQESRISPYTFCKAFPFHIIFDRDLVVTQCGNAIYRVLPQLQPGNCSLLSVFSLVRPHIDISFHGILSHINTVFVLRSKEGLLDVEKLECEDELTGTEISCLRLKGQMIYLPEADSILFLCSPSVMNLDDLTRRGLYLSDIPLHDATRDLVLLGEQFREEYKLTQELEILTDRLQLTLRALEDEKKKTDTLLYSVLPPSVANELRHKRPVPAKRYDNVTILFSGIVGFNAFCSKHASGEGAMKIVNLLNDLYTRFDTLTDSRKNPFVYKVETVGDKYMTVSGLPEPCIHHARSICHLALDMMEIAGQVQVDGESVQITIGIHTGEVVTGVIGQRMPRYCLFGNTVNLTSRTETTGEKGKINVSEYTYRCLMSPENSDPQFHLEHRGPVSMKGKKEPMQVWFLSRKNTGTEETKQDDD
# T1 sequence (Q02108 1-690): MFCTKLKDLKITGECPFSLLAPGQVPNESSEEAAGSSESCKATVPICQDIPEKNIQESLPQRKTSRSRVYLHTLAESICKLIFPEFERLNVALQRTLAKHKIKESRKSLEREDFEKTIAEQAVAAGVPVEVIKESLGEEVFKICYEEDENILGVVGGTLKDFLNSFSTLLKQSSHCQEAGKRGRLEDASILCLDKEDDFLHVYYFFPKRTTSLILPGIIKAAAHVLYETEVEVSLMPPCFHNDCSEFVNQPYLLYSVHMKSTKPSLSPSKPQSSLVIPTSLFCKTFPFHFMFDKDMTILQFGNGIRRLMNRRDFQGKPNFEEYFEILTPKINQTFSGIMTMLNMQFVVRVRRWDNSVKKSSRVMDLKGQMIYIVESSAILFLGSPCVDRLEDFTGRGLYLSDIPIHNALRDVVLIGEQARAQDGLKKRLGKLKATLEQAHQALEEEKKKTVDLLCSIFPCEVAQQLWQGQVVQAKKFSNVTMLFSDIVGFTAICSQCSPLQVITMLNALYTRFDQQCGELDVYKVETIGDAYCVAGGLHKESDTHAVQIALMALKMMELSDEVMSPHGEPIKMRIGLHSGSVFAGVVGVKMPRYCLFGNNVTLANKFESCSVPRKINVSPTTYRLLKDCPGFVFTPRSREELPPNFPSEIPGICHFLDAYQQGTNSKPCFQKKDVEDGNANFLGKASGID
# [2] = system: platelet aggregation induced by arachidonic acid; test: Platelet aggregation induced by arachidonic acid following peroral administration in rabbits; assay type: in vivo, rabbit
# Procedure: FIG. 3 is a graph showing the changes in platelet aggregation, induced by arachidonic acid, following peroral administration of the compound I in rabbits (% compared to control).
# Antiplatelet activity was assessed by the effect of the compound on platelet aggregation of rabbit blood plasma, induced by ADP (adenosine diphosphate) and arachidonic acid. Platelet aggregation was assessed by the change of optical density of plasma. Studies were performed using both intravenous administration, in comparison with sodium nitroprusside, and oral administration, in comparison with acetylsalicylic acid. Compound I was used in concentrations of 10^−3-10^−7 M (parenteral administration) and in 4-8 and 12 mg/kg doses (oral administration).
# Using arachidonic acid (AA) as an aggregation inductor, the experiments were performed in conditions of oral administration. We consider such experimentation justified by the possibility of different routes of administration for the tested compound, not only intravenous one (unlike sodium nitroprusside).
# [3] = system: non-narcotized SHT rats; test: Blood pressure in non-narcotized SHT rats, intragastric administration (non-invasive BP measurement); assay type: in vivo, rat
# Procedure: In experiments on non-narcotized SHT rats intragastric administration of the compound of formula I has caused dose-dependent reduction of BP, the duration of which was increased correspondingly with dose increase (maximal duration of effect 5 hours after single administration of 50 mg/kg dose, Table 3).
structure (smiles),measurement,setting,value
"CN1CC(CO)O/C1=C(C#N)/C=C1/Nc2ccccc2C1=O (stereo not shown) [Compound I, 2-[2-Cyano-2-[5-(hydroxymethyl)-3-methyl-1,3-oxazolidin-2-ylidene]ethylidene]indolin-3-one]",Activation of soluble guanylate cyclase (in words),[1],approaches that of L-arginine
same,average degree of activation of the enzyme,[1]; 0.1 mM concentration,2.12 times
same,"Activation, Mean M ± m","[1]; 0.1 mmol, mean of 5 samples",212 ± 67
same,"Specific activity of GC, Mean M ± m","[1]; 0.1 mmol, mean of 5 samples (initial 174 ± 33)",342 ± 86 pmol cGMP/min/mg protein
same,Activation,"[1]; 0.1 mmol, sample number 1",446
same,Specific activity of GC,"[1]; 0.1 mmol, sample number 1 (initial 133)",593 pmol cGMP/min/mg protein
same,Activation,"[1]; 0.1 mmol, sample number 2",153
same,Specific activity of GC,"[1]; 0.1 mmol, sample number 2 (initial 235)",450 pmol cGMP/min/mg protein
same,Activation,"[1]; 0.1 mmol, sample number 3",146
same,Specific activity of GC,"[1]; 0.1 mmol, sample number 3 (initial 100)",146 pmol cGMP/min/mg protein
same,Activation,"[1]; 0.1 mmol, sample number 4",189
same,Specific activity of GC,"[1]; 0.1 mmol, sample number 4 (initial 140)",265 pmol cGMP/min/mg protein
same,Activation,"[1]; 0.1 mmol, sample number 5",122
same,Specific activity of GC,"[1]; 0.1 mmol, sample number 5 (initial 211)",256 pmol cGMP/min/mg protein
same,Effect on platelet aggregation (statistically significant),[2]; after 2 hours (inductor not restated),32%
same,Effect on platelet aggregation,[2]; at 4 hour (inductor not restated),38%
same,Effect on platelet aggregation (as a tendency),[2]; end of the first hour (inductor not restated),up to 10%
same,Reduction of platelet aggregation induced by arachidonic acid,"[2]; oral, rabbits, 1 hour after the administration",reduced by a third
same,Action of AA at the end of the observation period,"[2]; oral, rabbits, 4 hours",comparable to the control
same,Inhibition of the action of the inductor (AA),"[2]; oral, rabbits, after 2 hour",by over two times
same,Duration of effect on AA-induced aggregation,[2]; per os,2 to 4 h
same,"Reduction of BP, mmHg","[3]; 1 mg/kg orally, time column 1 (hours), 1 h after dosing",20* mmHg
same,"Reduction of BP, mmHg","[3]; 1 mg/kg orally, time column 2, 2 h after dosing",10 mmHg
same,"Reduction of BP, mmHg","[3]; 1 mg/kg orally, time column 3, 0 - absence of effect, 3 h after dosing",0 mmHg
same,"Reduction of BP, mmHg","[3]; 1 mg/kg orally, time column 4, 0 - absence of effect, 4 h after dosing",0 mmHg
same,"Reduction of BP, mmHg","[3]; 1 mg/kg orally, time column 5, 0 - absence of effect, 5 h after dosing",0 mmHg
same,"Reduction of BP, mmHg","[3]; 1 mg/kg orally, time column 6, 0 - absence of effect, 6 h after dosing",0 mmHg
same,"Reduction of BP, mmHg","[3]; 5 mg/kg orally, time column 1, 1 h after dosing",17* mmHg
same,"Reduction of BP, mmHg","[3]; 5 mg/kg orally, time column 2, 2 h after dosing",20* mmHg
same,"Reduction of BP, mmHg","[3]; 5 mg/kg orally, time column 3, 3 h after dosing",32* mmHg
same,"Reduction of BP, mmHg","[3]; 5 mg/kg orally, time column 4, 4 h after dosing",30* mmHg
same,"Reduction of BP, mmHg","[3]; 5 mg/kg orally, time column 5, 5 h after dosing",15 mmHg
same,"Reduction of BP, mmHg","[3]; 5 mg/kg orally, time column 6, 0 - absence of effect, 6 h after dosing",0 mmHg
same,"Reduction of BP, mmHg","[3]; 10 mg/kg orally, time column 1, 0 - absence of effect, 1 h after dosing",23* mmHg
same,"Reduction of BP, mmHg","[3]; 10 mg/kg orally, time column 2, 0 - absence of effect, 2 h after dosing",30* mmHg
same,"Reduction of BP, mmHg","[3]; 10 mg/kg orally, time column 3, 0 - absence of effect, 3 h after dosing",37 mmHg
same,"Reduction of BP, mmHg","[3]; 10 mg/kg orally, time column 4, 0 - absence of effect, 4 h after dosing",35 mmHg
same,"Reduction of BP, mmHg","[3]; 10 mg/kg orally, time column 5, 0 - absence of effect, 5 h after dosing",17* mmHg
same,"Reduction of BP, mmHg","[3]; 10 mg/kg orally, time column 6, 0 - absence of effect, 6 h after dosing",0 mmHg
same,"Reduction of BP, mmHg","[3]; 25 mg/kg orally, time column 1, 1 h after dosing",26* mmHg
same,"Reduction of BP, mmHg","[3]; 25 mg/kg orally, time column 2, 2 h after dosing",32* mmHg
same,"Reduction of BP, mmHg","[3]; 25 mg/kg orally, time column 3, 3 h after dosing",45* mmHg
same,"Reduction of BP, mmHg","[3]; 25 mg/kg orally, time column 4, 4 h after dosing",45* mmHg
same,"Reduction of BP, mmHg","[3]; 25 mg/kg orally, time column 5, 5 h after dosing",25* mmHg
same,"Reduction of BP, mmHg","[3]; 25 mg/kg orally, time column 6, 0 - absence of effect, 6 h after dosing",0 mmHg
same,"Reduction of BP, mmHg","[3]; 50 mg/kg orally, time column 1, 1 h after dosing",25* mmHg
same,"Reduction of BP, mmHg","[3]; 50 mg/kg orally, time column 2, 2 h after dosing",42* mmHg
same,"Reduction of BP, mmHg","[3]; 50 mg/kg orally, time column 3, 3 h after dosing",50* mmHg
same,"Reduction of BP, mmHg","[3]; 50 mg/kg orally, time column 4, 4 h after dosing",50* mmHg
same,"Reduction of BP, mmHg","[3]; 50 mg/kg orally, time column 5, 5 h after dosing",25* mmHg
same,"Reduction of BP, mmHg","[3]; 50 mg/kg orally, time column 6, 0 - absence of effect, 6 h after dosing",0 mmHg
same,Maximal duration of BP-reducing effect,[3]; single intragastric administration of 50 mg/kg dose,5 h
